Data as given in ChEMBL document CHEMBL3727359, “Methods and compositions for treating or preventing pruritis” (2012).

Legend:
[1] = target: T1, Mas-related G-protein coupled receptor member X1 (Homo sapiens, UniProt Q96LB2); assay: Antagonist activity at MrgX1 in mouse or rat DRG neurons assessed as intracellular Ca2+ level by FLIPR assay; assay type: functional, cell-based
[2] = target: T1, Mas-related G-protein coupled receptor member X1; assay: Antagonist activity at MrgX1 in mouse or rat DRG neurons assessed as action potential by whole-cell patch clamp method; assay type: functional

T1 sequence (Q96LB2 whole entry, looked up): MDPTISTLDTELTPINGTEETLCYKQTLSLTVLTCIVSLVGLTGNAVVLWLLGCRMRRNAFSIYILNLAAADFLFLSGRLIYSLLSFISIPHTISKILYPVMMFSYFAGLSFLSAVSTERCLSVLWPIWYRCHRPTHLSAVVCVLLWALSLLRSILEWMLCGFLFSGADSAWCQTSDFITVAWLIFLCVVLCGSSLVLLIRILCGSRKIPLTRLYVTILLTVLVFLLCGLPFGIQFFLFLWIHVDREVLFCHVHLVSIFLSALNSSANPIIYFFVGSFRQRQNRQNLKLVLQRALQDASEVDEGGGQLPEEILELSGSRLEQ

## N#Cc1ccc(COC2C3CCN(CC3)C2C(c2ccccc2)c2ccccc2)cc1 (configuration not stated)
[1]
  IC50: 0.632 µM
[2]
  IC50: 5.6 µM
